Data from patent publication US20090232913A1, “Composition for the Control of Cholesterol Levels” (priority 2005, published 2009).
Entries after “also recorded” stand apart in the source; their conditions may differ.

Assays:
diabetic rats [1] = assay: Serum cholesterol concentrations after 7 day oral treatment of diabetic rats (lovastatin, MKH, combination); type: in vivo; conditions: for Effect on total cholesterol: 7 day oral dosage; for Effect on HDL levels: 7 days, MKH at 2 mg/kg
Description: This is significant as HDLs are protective against heart disease (Despres et al., 2000, Atherosclerosis 153: 263-272). […] This is important as low LDL levels are associated with decreased risk of heart disease.

normoglycaemic rats [2] = assay: Serum cholesterol and lipid profile in normoglycaemic rats after 5 days treatment; type: in vivo, Wistar rats; conditions: for Changes in HDL serum cholesterol concentrations / Changes in total cholesterol in serum concentrations / LDL serum cholesterol concentrations relative to control values: normoglycaemic / non-diabetic rats, 5 days treatment
Experimental: In this study white, adult male Wistar rats with average weights between 200 to 300 grams were used. During the study, the animals had free access to food and water and were exposed to changes of dark and light every 12 hours. Access to the food was restricted 12 hours before measurement of glucose blood level with free access to water. The experiment was performed on a normoglycaemic group (Group 1, 32 rats, 8 per treatment) and diabetic rats (Group 2, 32 rats, 8 per treatment). For the diabetic rat experiments diabetes was induced with intraperitoneal injection of alloxan 100 mg/kg. Alloxan is very well verified diabetogenic substance for inducing diabetes in rats and other animal species (rabbit, dog, mice et […]). See, for example, […]. Coil Physicians Edinb, 32: 134-142, 2002; […], Diabetologia, 31: 337-342, 1988; Shaw et al., Lancet, 11: 384-386, 1943; Goldner & Gomori, Endocrinology, 35: 241-268, 1943. 1). Saline solution, 1 ml/kg, per orally, daily for 5 days (control group); 2). Stevioside, 20 mg/kg, orally, daily for 5 days; 3). […] 15 minutes after the 5th dose, the animals were exposed to an oral glucose tolerance test (OGTT) using 4 g/kg, orally. Glucose blood concentrations were measured before the treatment, after the 5th dose, before OGTT, and 30 minutes after OGTT. Then the animals were anaesthetised with urethane injected intraperitoneally, 750 mg/kg, and blood samples for further biochemical analyses were taken by cardiopunction. All biochemical analyses of serum were done by standard procedures, as recommended by the International Federation for Clinical Chemistry (IFCC), on automatic spectrophotometer LISA 300 plus with International Quality Control. The following were measured in serum: 1). Triglycerides concentration (GPO-PAP kit obtained from Boehringer Mannheim GmbH (Mannheim, Germany) in accordance with the manufacturers instructions) 2). […] C-peptide concentration. […] Generally the desired outcome was a decrease in low density lipoprotein (LDL), with no concomitant decrease in high density lipoprotein (HDL). It was also hypothesised that there would be a compatibility with glycaemic effects shown in Example 2. The experimental procedures were essentially those described in Example 2.

diabetic rats [3] = assay: Serum cholesterol and lipid profile in diabetic rats after 5 days treatment; type: in vivo, Wistar rats; conditions: for Effect on LDL cholesterol levels: treatment for 5 days
Experimental: In this study white, adult male Wistar rats with average weights between 200 to 300 grams were used. During the study, the animals had free access to food and water and were exposed to changes of dark and light every 12 hours. Access to the food was restricted 12 hours before measurement of glucose blood level with free access to water. The experiment was performed on a normoglycaemic group (Group 1, 32 rats, 8 per treatment) and diabetic rats (Group 2, 32 rats, 8 per treatment). For the diabetic rat experiments diabetes was induced with intraperitoneal injection of alloxan 100 mg/kg. Alloxan is very well verified diabetogenic substance for inducing diabetes in rats and other animal species (rabbit, dog, mice et […]). See, for example, […]. Coil Physicians Edinb, 32: 134-142, 2002; […], Diabetologia, 31: 337-342, 1988; Shaw et al., Lancet, 11: 384-386, 1943; Goldner & Gomori, Endocrinology, 35: 241-268, 1943. 1). Saline solution, 1 ml/kg, per orally, daily for 5 days (control group); 2). Stevioside, 20 mg/kg, orally, daily for 5 days; 3). […] In the diabetic rat the criterion for successful diabetes induction was blood glucose greater than 20 mmol/L on the third day after the last alloxan dose after 3 hours of fasting with free access to water. 15 minutes after the 5th dose, the animals were exposed to an oral glucose tolerance test (OGTT) using 4 g/kg, orally. Glucose blood concentrations were measured before the treatment, after the 5th dose, before OGTT, and 30 minutes after OGTT. Then the animals were anaesthetised with urethane injected intraperitoneally, 750 mg/kg, and blood samples for further biochemical analyses were taken by cardiopunction. All biochemical analyses of serum were done by standard procedures, as recommended by the International Federation for Clinical Chemistry (IFCC), on automatic spectrophotometer LISA 300 plus with International Quality Control. The following were measured in serum: 1). Triglycerides concentration (GPO-PAP kit obtained from Boehringer Mannheim GmbH (Mannheim, Germany) in accordance with the manufacturers instructions) 2). […] C-peptide concentration. […] Generally the desired outcome was a decrease in low density lipoprotein (LDL), with no concomitant decrease in high density lipoprotein (HDL). It was also hypothesised that there would be a compatibility with glycaemic effects shown in Example 2. The experimental procedures were essentially those described in Example 2.

diabetic Wistar rats = assay: Blood glucose and OGTT in alloxan-induced diabetic rats; type: in vivo; conditions: 5 days oral treatment
Experimental: In this study white, adult male Wistar rats with average weights between 200 to 300 grams were used. During the study, the animals had free access to food and water and were exposed to changes of dark and light every 12 hours. Access to the food was restricted 12 hours before measurement of glucose blood level with free access to water. The experiment was performed on a normoglycaemic group (Group 1, 32 rats, 8 per treatment) and diabetic rats (Group 2, 32 rats, 8 per treatment). For the diabetic rat experiments diabetes was induced with intraperitoneal injection of alloxan 100 mg/kg. Alloxan is very well verified diabetogenic substance for inducing diabetes in rats and other animal species (rabbit, dog, mice et […]). See, for example, […]. Coil Physicians Edinb, 32: 134-142, 2002; […], Diabetologia, 31: 337-342, 1988; Shaw et al., Lancet, 11: 384-386, 1943; Goldner & Gomori, Endocrinology, 35: 241-268, 1943. 1). Saline solution, 1 ml/kg, per orally, daily for 5 days (control group); 2). Stevioside, 20 mg/kg, orally, daily for 5 days; 3). […] In the diabetic rat the criterion for successful diabetes induction was blood glucose greater than 20 mmol/L on the third day after the last alloxan dose after 3 hours of fasting with free access to water. […] Glucose blood concentrations were measured before the treatment, after the 5th dose, before OGTT, and 30 minutes after OGTT. […]

normoglycaemic rats [4] = assay: C peptide serum concentration in normoglycaemic rats; type: in vivo, Wistar rats; conditions: non-diabetic rats; treatment for 5 days
Experimental: In this study white, adult male Wistar rats with average weights between 200 to 300 grams were used. During the study, the animals had free access to food and water and were exposed to changes of dark and light every 12 hours. Access to the food was restricted 12 hours before measurement of glucose blood level with free access to water. The experiment was performed on a normoglycaemic group (Group 1, 32 rats, 8 per treatment) and diabetic rats (Group 2, 32 rats, 8 per treatment). For the diabetic rat experiments diabetes was induced with intraperitoneal injection of alloxan 100 mg/kg. Alloxan is very well verified diabetogenic substance for inducing diabetes in rats and other animal species (rabbit, dog, mice et […]). See, for example, […]. Coil Physicians Edinb, 32: 134-142, 2002; […], Diabetologia, 31: 337-342, 1988; Shaw et al., Lancet, 11: 384-386, 1943; Goldner & Gomori, Endocrinology, 35: 241-268, 1943. 1). Saline solution, 1 ml/kg, per orally, daily for 5 days (control group); 2). Stevioside, 20 mg/kg, orally, daily for 5 days; 3). […] 15 minutes after the 5th dose, the animals were exposed to an oral glucose tolerance test (OGTT) using 4 g/kg, orally. Glucose blood concentrations were measured before the treatment, after the 5th dose, before OGTT, and 30 minutes after OGTT. […] The following were measured in serum: 1). […]

diabetic rats [5] = assay: C peptide serum concentration in diabetic rats; type: in vivo, Wistar rats; conditions: treatment for 5 days
Experimental: In this study white, adult male Wistar rats with average weights between 200 to 300 grams were used. During the study, the animals had free access to food and water and were exposed to changes of dark and light every 12 hours. Access to the food was restricted 12 hours before measurement of glucose blood level with free access to water. The experiment was performed on a normoglycaemic group (Group 1, 32 rats, 8 per treatment) and diabetic rats (Group 2, 32 rats, 8 per treatment). For the diabetic rat experiments diabetes was induced with intraperitoneal injection of alloxan 100 mg/kg. Alloxan is very well verified diabetogenic substance for inducing diabetes in rats and other animal species (rabbit, dog, mice et […]). See, for example, […]. Coil Physicians Edinb, 32: 134-142, 2002; […], Diabetologia, 31: 337-342, 1988; Shaw et al., Lancet, 11: 384-386, 1943; Goldner & Gomori, Endocrinology, 35: 241-268, 1943. 1). Saline solution, 1 ml/kg, per orally, daily for 5 days (control group); 2). Stevioside, 20 mg/kg, orally, daily for 5 days; 3). […] Glucose blood concentrations were measured before the treatment, after the 5th dose, before OGTT, and 30 minutes after OGTT. […] The following were measured in serum: 1). […]

SMILES	Effect on total cholesterol (diabetic rats [1])	Effect on LDL levels (diabetic rats [1]; 7 days oral treatment, MKH 2 mg/kg, Lovastatin 20 mg/kg)	Effect on HDL levels (diabetic rats [1]; Lovastatin 20 mg/kg)	Effect on LDL:HDL ratio (diabetic rats [1]; by Day 7)	Changes in HDL serum cholesterol concentrations (normoglycaemic rats [2])	Changes in total cholesterol in serum concentrations (normoglycaemic rats [2])	LDL serum cholesterol concentrations relative to control values (normoglycaemic rats [2])	LDL: HDL Ratio (ratios of means) (normoglycaemic rats [2]; normoglycaemic rats, n = 8, after 5 days treatment)	Changes in total cholesterol in serum concentrations (diabetic rats [3]; 5 days treatment)	Effect on LDL:HDL ratio (diabetic rats [3]; 5 days treatment)	Effect on HDL levels (diabetic rats [3]; 5 days, MKH at 4 mg/kg)	LDL: HDL Ratio (ratios of means) (diabetic rats [3]; n = 8, after 5 days treatment)	Effect on LDL cholesterol levels (diabetic rats [3])	Effect on glucose levels both before and after the OGTT (diabetic Wistar rats)	Effect on C peptide levels (normoglycaemic rats [4])	Effect on C-peptide (diabetic rats [5])
C[C@H](CCC(=O)O)[C@H]1CC[C@H]2[C@@H]3[C@H](O)C[C@@H]4C[C@H](O)CC[C@]4(C)[C@H]3CC(=O)[C@]12C [MKH, 3α,7α-dihydroxy-12-oxo-5β-cholanate]	reduced total cholesterol by a similar amount	very highly significant decrease in LDL levels; also recorded: significantly greater than that achieved by Lovastatin	this effect was not observed; also recorded: did not do so	significant decrease in the LDL:HDL ratio	no significant changes	no significant changes	significantly decreased (one third of control values)	0.01	no significant changes	slight increase in LDL:HDL ratio	A decrease was observed	1.12	decreases in LDL levels and while these were not statistically significant	significant decrease in glucose levels	Neither stevioside or 3α,7α-dihydroxy-12-oxo-5β-cholanate alone had statistically significant effects	
C=C1C[C@@]23CC[C@H]4[C@@](C)(CCC[C@@]4(C)C(=O)O[C@@H]4O[C@H](CO)[C@@H](O)[C@H](O)[C@H]4O)[C@@H]2CC[C@]1(O[C@@H]1O[C@H](CO)[C@@H](O)[C@H](O)[C@H]1O[C@@H]1O[C@H](CO)[C@@H](O)[C@H](O)[C@H]1O)C3 [Stevioside, stevioside]					no significant changes	no significant changes	significantly decreased (one third of control values)		no significant changes				highly significant decrease in LDL cholesterol levels		Neither stevioside or 3α,7α-dihydroxy-12-oxo-5β-cholanate alone had statistically significant effects	significant increases in C-peptide
CC[C@H](C)C(=O)O[C@H]1C[C@@H](C)C=C2C=C[C@H](C)[C@H](CC[C@@H]3C[C@@H](O)CC(=O)O3)[C@H]21 [Lovastatin, reference compound]	reduced total cholesterol by a similar amount		reduced HDLs significantly													
